For assay [1], the system named is NQO1 activity in Hepa1c1c7 cells. The experiment in a line: NAD(P)H: quinone oxidoreductase-1 (NQO1) enzyme induction assay (in vitro). The following applies: Mus musculus, Hepa-1c1c7, NQO1 activity with 400 nM test compound as a ratio from the base without compound, about 48 hr. It counts as cell-based, mouse. In outline:
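Mouse Hepa1c1c7 hepatoma cells treated 48 hr with 400 nM compound (final). NQO1 activity in lysates read by absorbance at 610 nm; value is background-subtracted activity ratio versus untreated cells.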

The target of assay [2] is binding between Nrf2 and Keap1 (Homo sapiens (Human), UniProt Q14145). Description: FP assay (in vitro): inhibition of Nrf2-Keap1 binding by fluorescence polarization. The following applies: GST-fused human Keap1 (325-642) 20 nM, FITC-labeled Nrf2 peptide 10 nM, 2 hr at room temperature.
Chain of binding between Nrf2 and Keap1 (Q14145 325-624 limits assumed): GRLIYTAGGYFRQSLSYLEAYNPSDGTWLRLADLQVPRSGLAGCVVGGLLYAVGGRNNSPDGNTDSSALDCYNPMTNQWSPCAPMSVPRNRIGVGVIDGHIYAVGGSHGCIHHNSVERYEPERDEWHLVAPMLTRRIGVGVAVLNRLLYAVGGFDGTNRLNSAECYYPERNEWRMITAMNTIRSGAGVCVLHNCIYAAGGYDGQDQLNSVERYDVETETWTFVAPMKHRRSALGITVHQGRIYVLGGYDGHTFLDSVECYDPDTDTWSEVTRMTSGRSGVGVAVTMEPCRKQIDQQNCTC

A value given as a limit tells only on which side of the number the result lay.

With `CC[C@@H]1CN(Cc2cc([C@@H](CC(=O)O)c3cc(Cl)c4c(nnn4C)c3C)cc3ccsc23)[C@@H](C)c2ncccc2O1` [Example 70, (3R)-3-(7-Chloro-1,4-dimethyl-1H-benzotriazol-5-yl)-3-(7-{[(2R,5S)-2-ethyl-5-methyl-2,3-dihydropyrido[2,3-f][1,4]oxazepin-4(5H)-yl]methyl}-1-benzothiophen-5-yl)propanoic acid], in assay [1], the fold induction at 0.4 µM fell in the range of 3 to 5. Moreover, the concentration for half-maximal inhibition (IC50) in assay [2] lay within 30 to 100 nM.
In the same order, the values of `CC[C@@H]1CN(Cc2cc(C(CC(=O)O)c3ccc4c(nnn4C)c3C)cc3ccsc23)[C@H](C)c2ncccc2O1` (stereo partly drawn) [Example 73, 3-(1,4-Dimethyl-1H-benzotriazol-5-yl)-3-(7-{[(2R,5R)-2-ethyl-5-methyl-2,3-dihydropyrido[2,3-f][1,4]oxazepin-4(5H)-yl]methyl}-1-benzothiophen-5-yl)propanoic acid] are greater than 5 and 30 to 100 nM.
The matching figures for `CC[C@@H]1CN(Cc2cc([C@H](CC(=O)O)c3ccc4c(nnn4C)c3Cl)cc3ccsc23)[C@@H](C)c2ncccc2O1` [Example 74, (3S)-3-(4-Chloro-1-methyl-1H-benzotriazol-5-yl)-3-(7-{[(2R,5S)-2-ethyl-5-methyl-2,3-dihydropyrido[2,3-f][1,4]oxazepin-4(5H)-yl]methyl}-1-benzothiophen-5-yl)propanoic acid]: greater than 5 and no more than 10 nM.
In the same order, the values of `CC[C@@H]1CN(Cc2cc([C@@H](CC(=O)O)c3ccc4c(nnn4C)c3Cl)cc3ccsc23)[C@@H](C)c2ncccc2O1` [Example 75, (3R)-3-(4-Chloro-1-methyl-1H-benzotriazol-5-yl)-3-(7-{[(2R,5S)-2-ethyl-5-methyl-2,3-dihydropyrido[2,3-f][1,4]oxazepin-4(5H)-yl]methyl}-1-benzothiophen-5-yl)propanoic acid] are greater than 5 and no more than 10 nM.
As for `Cc1c([C@@H](CC(=O)O)c2cc(CN3C[C@@H](C)Oc4ccc(O)nc4[C@@H]3C)c3sccc3c2)ccc2c1nnn2C` [Example 80, (3S)-3-(1,4-Dimethyl-1H-benzotriazol-5-yl)-3-(7-{[(2R,5S)-7-hydroxy-2,5-dimethyl-2,3-dihydropyrido[2,3-f][1,4]oxazepin-4(5H)-yl]methyl}-1-benzothiophen-5-yl)propanoic acid], the fold induction at 0.4 µM in assay [1] is greater than 5. In assay [2], the IC50 lay in the range of 10 to 30 nM.
In the same order, the values of `Cc1c([C@H](CC(=O)O)c2cc(CN3C[C@@H](C)Oc4ccc(O)nc4[C@@H]3C)c3sccc3c2)ccc2c1nnn2C` [Example 82, (3R)-3-(1,4-Dimethyl-1H-benzotriazol-5-yl)-3-(7-{[(2R,5S)-7-hydroxy-2,5-dimethyl-2,3-dihydropyrido[2,3-f][1,4]oxazepin-4(5H)-yl]methyl}-1-benzothiophen-5-yl)propanoic acid] are greater than 5 and 10 to 30 nM.
In the same order, the values of `CC[C@@H]1CN(Cc2cc([C@@H](c3ccc4c(nnn4C)c3C)C(C)(C)C(=O)O)cc3c2CCC3)[C@@H](C)c2ncccc2O1` [Example 89, (3S)-3-(1,4-Dimethyl-1H-benzotriazol-5-yl)-3-(7-{[(2R,5S)-2-ethyl-5-methyl-2,3-dihydropyrido[2,3-f][1,4]oxazepin-4(5H)-yl]methyl}-2,3-dihydro-1H-inden-5-yl)-2,2-dimethylpropanoic acid] are greater than 5 and no more than 10 nM.
On to `Cc1c(C(CC(=O)O)c2cc(CN3C[C@@H](C)Oc4ccccc4S3(=O)=O)c3cc[nH]c3c2)ccc2c1nnn2C` (stereo partly drawn) [Example 90, 3-(1,4-Dimethyl-1H-benzotriazol-5-yl)-3-(4-{[(4R)-4-methyl-1,1-dioxido-3,4-dihydro-2H-5,1,2-benzoxathiazepin-2-yl]methyl}-1H-indol-6-yl)propanoic acid], for which the fold induction at 0.4 µM in assay [1] was greater than 5. The IC50 in assay [2] fell in the range of 10 to 30 nM.
The matching figures for `CC[C@@H]1CN(Cc2cc(C(CC(=O)O)c3ccc4c(nnn4C)c3C)cc3c2OCC3)S(=O)(=O)c2cc(Cl)cnc2O1` (stereo partly drawn) [Example 91, 3-(7-{[(4R)-8-Chloro-4-ethyl-1,1-dioxido-3,4-dihydro-2H-pyrido[2,3-b][1,4,5]oxathiazepin-2-yl]methyl}-2,3-dihydro-1-benzofuran-5-yl)-3-(1,4-dimethyl-1H-benzotriazol-5-yl)propanoic acid]: greater than 5 and 10 to 30 nM.
The matching figures for `CC[C@@H]1CN(Cc2cc(C(CC(=O)O)c3ccc4c(nnn4C)c3Cl)cc3ccoc23)S(=O)(=O)c2cc(Cl)cnc2O1` (stereo partly drawn) [Example 92, 3-(7-{[(4R)-8-Chloro-4-ethyl-1,1-dioxido-3,4-dihydro-2H-pyrido[2,3-b][1,4,5]oxathiazepin-2-yl]methyl}-1-benzofuran-5-yl)-3-(4-chloro-1-methyl-1H-benzotriazol-5-yl)propanoic acid]: greater than 5 and 10 to 30 nM.
As to `C[C@@H]1CN(Cc2cc(C(CC(=O)O)c3ccc4c(nnn4C)c3Cl)cc3c2CCC3)S(=O)(=O)c2ccccc2O1` (stereo partly drawn) [Example 95, 3-(4-Chloro-1-methyl-1H-benzotriazol-5-yl)-3-(7-{[(4R)-4-methyl-1,1-dioxido-3,4-dihydro-2H-5,1,2-benzoxathiazepin-2-yl]methyl}-2,3-dihydro-1H-inden-5-yl)propanoic acid], the fold induction at 0.4 µM in assay [1] was greater than 5. Also, the IC50 in assay [2] was no more than 10 nM.
In the case of `CC[C@@H]1CN(Cc2cc([C@H](CC(=O)O)c3cc(Cl)c4c(nnn4C)c3C)cc3c2CCC3)S(=O)(=O)c2cc(Cl)cnc2O1` [Example 96, (3S)-3-(7-Chloro-1,4-dimethyl-1H-benzotriazol-5-yl)-3-(7-{[(4R)-8-chloro-4-ethyl-1,1-dioxido-3,4-dihydro-2H-pyrido[2,3-b][1,4,5]oxathiazepin-2-yl]methyl}-2,3-dihydro-1H-inden-5-yl)propanoic acid], the fold induction at 0.4 µM in assay [1] is greater than 5. Besides, in assay [2], the IC50 was no more than 10 nM.
The matching figures for `CC[C@@H]1CN(Cc2cc([C@@H](CC(=O)O)c3cc(Cl)c4c(nnn4C)c3C)cc3c2CCC3)S(=O)(=O)c2cc(Cl)cnc2O1` [Example 97, (3R)-3-(7-Chloro-1,4-dimethyl-1H-benzotriazol-5-yl)-3-(7-{[(4R)-8-chloro-4-ethyl-1,1-dioxido-3,4-dihydro-2H-pyrido[2,3-b][1,4,5]oxathiazepin-2-yl]methyl}-2,3-dihydro-1H-inden-5-yl)propanoic acid]: greater than 5 and no more than 10 nM.
In the same order, the values of `CC[C@@H]1CN(Cc2cc([C@@H](CC(=O)O)c3cc(OC(F)F)c4c(nnn4C)c3C)cc3c2CCC3)S(=O)(=O)c2cc(Cl)cnc2O1` [Example 98, (3R)-3-(7-{[(4R)-8-Chloro-4-ethyl-1,1-dioxido-3,4-dihydro-2H-pyrido[2,3-b][1,4,5]oxathiazepin-2-yl]methyl}-2,3-dihydro-1H-inden-5-yl)-3-[7-(difluoromethoxy)-1,4-dimethyl-1H-benzotriazol-5-yl]propanoic acid] are greater than 5 and no more than 10 nM.
In the same order, the values of `CC[C@@H]1CN(Cc2cc([C@H](CC(=O)O)c3cc(OC(F)F)c4c(nnn4C)c3C)cc3c2CCC3)S(=O)(=O)c2cc(Cl)cnc2O1` [Example 99, (3S)-3-(7-{[(4R)-8-Chloro-4-ethyl-1,1-dioxido-3,4-dihydro-2H-pyrido[2,3-b][1,4,5]oxathiazepin-2-yl]methyl}-2,3-dihydro-1H-inden-5-yl)-3-[7-(difluoromethoxy)-1,4-dimethyl-1H-benzotriazol-5-yl]propanoic acid] are greater than 5 and no more than 10 nM.
In the case of `CC[C@@H]1CN(Cc2cc([C@H](CC(=O)O)c3cc(OC(F)(F)F)c4c(nnn4C)c3C)cc3c2CCC3)S(=O)(=O)c2cc(Cl)cnc2O1` [Example 100, (3S)-3-(7-{[(4R)-8-Chloro-4-ethyl-1,1-dioxido-3,4-dihydro-2H-pyrido[2,3-b][1,4,5]oxathiazepin-2-yl]methyl}-2,3-dihydro-1H-inden-5-yl)-3-[1,4-dimethyl-7-(trifluoromethoxy)-1H-benzotriazol-5-yl]propanoic acid], the fold induction at 0.4 µM in assay [1] was greater than 5. In assay [2], the IC50 is no more than 10 nM.
In the same order, the values of `CC[C@@H]1CN(Cc2cc([C@@H](CC(=O)O)c3cc(OC(F)(F)F)c4c(nnn4C)c3C)cc3c2CCC3)S(=O)(=O)c2cc(Cl)cnc2O1` [Example 101, (3R)-3-(7-{[(4R)-8-Chloro-4-ethyl-1,1-dioxido-3,4-dihydro-2H-pyrido[2,3-b][1,4,5]oxathiazepin-2-yl]methyl}-2,3-dihydro-1H-inden-5-yl)-3-[1,4-dimethyl-7-(trifluoromethoxy)-1H-benzotriazol-5-yl]propanoic acid] are greater than 5 and no more than 10 nM.
In the case of `CC[C@@H]1CN(Cc2cc(C(CC(=O)O)c3cc(C4CC4)c4c(nnn4C)c3C)cc3c2OCC3)S(=O)(=O)c2cc(Cl)cnc2O1` (stereo partly drawn) [Example 102, 3-(7-{[(4R)-8-Chloro-4-ethyl-1,1-dioxido-3,4-dihydro-2H-pyrido[2,3-b][1,4,5]oxathiazepin-2-yl]methyl}-2,3-dihydro-1-benzofuran-5-yl)-3-(7-cyclopropyl-1,4-dimethyl-1H-benzotriazol-5-yl)propanoic acid], in assay [1], the fold induction at 0.4 µM was greater than 5. In addition, in assay [2], the IC50 is no more than 10 nM.
For the molecule `CC[C@@H]1CN(Cc2cc(C(CC(=O)O)c3cc(C4CC4)c4c(nnn4C)c3C)cc3[nH]ccc23)S(=O)(=O)c2cc(Cl)cnc2O1` (stereo partly drawn) [Example 103, 3-(4-{[(4R)-8-Chloro-4-ethyl-1,1-dioxido-3,4-dihydro-2H-pyrido[2,3-b][1,4,5]oxathiazepin-2-yl]methyl}-1H-indol-6-yl)-3-(7-cyclopropyl-1,4-dimethyl-1H-benzotriazol-5-yl)propanoic acid], the fold induction at 0.4 µM in assay [1] is greater than 5. Besides, the IC50 in assay [2] was no more than 10 nM.

These data come from US20250092064A1, “BENZOTRIAZOLE COMPOUND” (DAIICHI SANKYO COMPANY, LIMITED, priority 2022, published 2025).
